“And” between values parts separate entries of the source, which are not always exact repeats. Equal values may be shown once.
What was measured:
Cf-496-6 = test: Dose response test, growth in 96-well plates; format: cell-based, Chlorella fusca; settings: strain Cf-496-6; no growth, visual inspection
Cf WT = test: Dose response test, growth in 96-well plates; format: cell-based, Chlorella fusca; settings: strain Cf WT; concentration at which no growth is observed, visual inspection
Method: (§1) Dose response tests with B5U were set-up in 96-well, flat bottomed plates. 200 μl medium was used in each well. 2 μl of 6 day old culture was added to each well, then 2 μl of DMSO or dilution of test compound were added to respective wells. 2-fold dilutions starting at 100 ppm were used per well. Plates were incubated at 25° C., 50 μmol/m^2/s, 16 hour photoperiod.
(§2) This was assessed by a visual inspection of growth in the 96-well plate. The inhibitor concentration at which no growth is observed is then defined as the LD.
(§3) Starting dose was 100 ppm and decreasing with 2-fold dilutions with C. fusca wt, the five HST mutants and the 10 compounds to which the wt is sensitive. Plates were incubated at 25° C., 50 μmol/m2/s, 16 hour photoperiod.

Cf-496-15 = test: Dose response test, growth in 96-well plates; format: cell-based, Chlorella fusca; settings: strain Cf-496-15 (T277N); no growth, visual inspection
Method: as §1, §2, §3

Cf-496-19 = test: Dose response test, growth in 96-well plates; format: cell-based, Chlorella fusca; settings: strain Cf-496-19 (F275I); no growth, visual inspection
Method: as §1, §2, §3

Cf-496-28 = test: Dose response test, growth in 96-well plates; format: cell-based, Chlorella fusca; settings: strain Cf-496-28 (V276A); no growth, visual inspection
Method: as §1, §2, §3

Cf-496-8 = test: Dose response test, growth in 96-well plates; format: cell-based, Chlorella fusca; settings: strain Cf-496-8 (M278L & F279I); no growth, visual inspection
Method: as §1, §2, §3

Cf-496-94 = test: Dose response test, growth in 96-well plates; format: cell-based, Chlorella fusca; settings: strain Cf-496-94 (F275L); no growth, visual inspection
Method: as §1, §2, §3

Cf-496-13 = test: Dose response test, growth in 96-well plates; format: cell-based, Chlorella fusca; settings: strain Cf-496-13; no growth, visual inspection
Method: as §1, §2

Cf-496-21 = test: Dose response test, growth in 96-well plates; format: cell-based, Chlorella fusca; settings: strain Cf-496-21; no growth, visual inspection
Method: as §1, §2

Cf-496-35 = test: Dose response test, growth in 96-well plates; format: cell-based, Chlorella fusca; settings: strain Cf-496-35; no growth, visual inspection
Method: as §1, §2

Cf-496-54 = test: Dose response test, growth in 96-well plates; format: cell-based, Chlorella fusca; settings: strain Cf-496-54; no growth, visual inspection
Method: as §1, §2

Cf-496-78 = test: Dose response test, growth in 96-well plates; format: cell-based, Chlorella fusca; settings: strain Cf-496-78 (F275I); no growth, visual inspection
Method: as §1, §2

Cf-496-90 = test: Dose response test, growth in 96-well plates; format: cell-based, Chlorella fusca; settings: strain Cf-496-90; no growth, visual inspection
Method: as §1, §2

Cf-496-97 = test: Dose response test, growth in 96-well plates; format: cell-based, Chlorella fusca; settings: strain Cf-496-97; no growth, visual inspection
Method: as §1, §2

[1] = test system: D4424 (WT Oryza sativa HST) containing tobacco plant; test: Herbicide damage score after spraying, Example 4; format: in vivo
Method: (§4) In order to determine if the newly discovered mutations detailed in Example 1 confer resistance to HST inhibiting compounds when expressed in plants, GM tobacco lines were produced and tested with HST inhibiting compounds. Transgenic tobacco plants expressing the Oryza sativa HST gene with and without mutations were tested.
(§5) Populations of transgenic tobacco comprising 20-30 transgenic events per plant transformation constructs were generated as described in Example 2. These lines were clonally propagated and 1 clone per event was sprayed with 500, 100 or 50 g ai/ha of compound 1+0.2% (w/v) Genapol X080 with a spray volume of 200 L/Ha. (“g ai/ha” refers to grams of active compound per hectare).
(§6) Herbicidal damage was visually assessed across the population and a herbicide damage score given at 7 and 14 days. A score of 0 indicates no visible damage or stunting whereas a score of 100 indicates a complete death of the plant. 20 transgenic events (i.e. individual transgenic plants) from each GM tobacco line were transplanted to soil 1 week prior to spraying with HST inhibiting compounds. WT tobacco was included as a control. The mutated genes are identified in Table 16 below.
(§7) The values in Tables 17 to 23 below refer to percentage of damage to the tested plants and show the damage scores for 20 populations of plants expressing either Oryza sativa WT HST gene (SEQ ID NO. 18), the Oryza sativa HST mutated gene according to SEQ ID NO. 47, the Oryza sativa HST mutated gene according to SEQ ID NO. 48, the Oryza sativa HST mutated gene according to SEQ ID NO. 49, the Oryza sativa HST mutated gene according to SEQ ID NO. 50, or the Oryza sativa HST mutated gene according to SEQ ID NO. 51. A control population of wild-type Samsun tobacco was also assessed for herbicide damage. […] However the mutated versions of the HST gene carrying the F262I, V263A, […], or F266L mutations (SEQ ID NOs: 47, 48, 50 or 51) clearly display increased tolerance.

[2] = test system: D4425 (F262I mutant Oryza sativa HST) containing tobacco plant; test: Herbicide damage score after spraying, Example 4; format: in vivo; settings: T1 B5u 500 gai/ha, averaged across transgenic population
Method: as §4, §5, §6, §7

[3] = test system: D4426 (V263A mutant Oryza sativa HST) containing tobacco plant; test: Herbicide damage score after spraying, Example 4; format: in vivo; settings: T1 B5u 500 gai/ha; D4426 V263A; averaged across transgenic population
Method: as §4, §5, §6, §7

[4] = test system: D4427 (T264N mutant Oryza sativa HST) containing tobacco plant; test: Herbicide damage score after spraying, Example 4; format: in vivo; settings: T1 B5u 500 gai/ha
Method: as §4, §5, §6, §7

[5] = test system: D4428 (F266I mutant Oryza sativa HST) containing tobacco plant; test: Herbicide damage score after spraying, Example 4; format: in vivo; settings: T1 B5u 500 gai/ha, averaged across transgenic population
Method: as §4, §5, §6, §7

[6] = test system: D4429 (F266L mutant Oryza sativa HST) containing tobacco plant; test: Herbicide damage score after spraying, Example 4; format: in vivo; settings: T1 B5u 500 gai/ha, averaged across transgenic population
Method: as §4, §5, §6, §7

WT tobacco = test: Herbicide damage score after spraying, Example 4; format: in vivo; settings: T1 B5u 500 gai/ha; WT tobacco (Example 4); per plant
Method: as §4, §5, §6, §7

SMILES: Cc1nn(C)c(=O)c(-c2c(F)ccc(Cl)c2CCc2ccc(C(F)(F)F)cc2)c1OC(=O)C(C)C [B5u, [5-[3-chloro-6-fluoro-2-[2-[4-(trifluoromethyl)phenyl]ethyl]phenyl]-1,3-dimethyl-6-oxo-pyridazin-4-yl]2-methylpropanoate]
- LD (lethal dose) (Cf-496-6): >100 ppm
- LD (lethal dose) (Cf WT): 6.25 ppm
- LD (lethal dose) (Cf-496-15): >100 ppm
- LD (lethal dose) (Cf-496-19): >100 ppm
- LD (lethal dose) (Cf-496-28): >100 ppm
- LD (lethal dose) (Cf-496-8): >100 ppm
- LD (lethal dose) (Cf-496-94): >100 ppm
- LD (lethal dose) (Cf-496-13): 6.25 ppm
- LD (lethal dose) (Cf-496-21): >100 ppm
- LD (lethal dose) (Cf-496-35): >100 ppm
- LD (lethal dose) (Cf-496-54): >100 ppm
- LD (lethal dose) (Cf-496-78): >100 ppm
- LD (lethal dose) (Cf-496-90): >100 ppm
- LD (lethal dose) (Cf-496-97): >100 ppm
- Average percentage damage ([1]; T1 B5u 500 gai/ha, D4424, mutation n.a., averaged across transgenic population): 31%
- tolerance to herbicide ([1]; overexpression of Oryza sativa HST gene (SEQ ID NO.18) in tobacco): does not increase tolerance
- Average percentage damage [2]: 38%
- Average percentage damage [3]: 24%
- percentage of damage ([4]; D4427 OsHST V003 T264N, per event): 50%
- Average percentage damage ([4]; D4427 T264N, averaged across transgenic population): 67%
- Average percentage damage [5]: 56%
- Average percentage damage [6]: 40%
- percentage of damage (WT tobacco): 98% and 97% and 96% and 95%

From patent US20250304990A1, “HERBICIDE RESISTANCE” (SYNGENTA CROP PROTECTION AG, priority 2021, published 2025)
